Results from patent publication US7198958B2, “Method for increasing hydrophilicity of fluorescent label compounds” (Arctic Diagnostics Oy, priority 2001, dated 2007).

Legend:
Format in all cases: physicochemical
[1] = tested on: 5′-aminomodified oligonucleotide; test: Labelling of oligonucleotide; fluorescence yield of labelled oligonucleotide; conditions: labelled oligonucleotides diluted to equimolar concentrations
Procedure: To the solution of 5′-aminomodified oligonucleotide (17 bases, 28 μg, 5 nmol) in carbonate buffer (200 μl, 100 mM, pH 8.5) a 40 fold excess of labelling reagent (compound 2 or 4) in anhydrous DMF (50 μl) was added. Reaction mixture was incubated at 22° C. for 20 h. The labelled oligonucleotides were purifed by using reverse phase HPLC (RP-18 column) and gradient elution technique. Solvents were A: 2% acetonitrile in triethylammonium acetate buffer (50 mM, pH 7) and B: 70% acetonitrile in triethylammonium acetate buffer (50 mM, pH 7). The gradient started from 5% of solvent B and the amount of solvent B linearly raised to 40% in 25 minutes. Both dye-oligonucleotide conjugates (labelled with compound 2 or with compound 4) eluted between 18 to 22 minutes while the unlabelled oligonucleotide eluted at a timepoint of 10 minutes. The unbound labelling reagent was removed from the column by increasing the amount of solvent B to 100%.
The concentrations of the labelled oligonucleotides were determined spectrophotometrically. […] The labelled oligonucleotides were diluted to equimolar concentrations and the fluorescence yields were determined. […] The higher fluorescence yield of the oligonucleotide labelled with compound 4 can be explained by increased hydrophilicity of the label compound and increased distance between the label and the oligonucleotide.

mouse IgG anti-AFP [2] = test: Labelling of mouse IgG anti-AFP with dipyrrometheneboron difluoride dyes; conditions: 10 fold excess of label, phosphate buffered saline pH 7.4, room temperature 2 h
Procedure: To the solution of 1.5 mg (9.3 nmol) of mouse IgG anti-AFP in 400 μl phosphate buffered saline (10/150 mM, pH 7.4) a 10 fold excess (93 nmol) of compound 2, 4, 5 or 6 in anhydrous N,N-dimethylformamide was added. 40 μl of NaHCO3 (1 M, aq) was added and the mixture was incubated at room temperature for 2 h. The products were purified with NAP-5 gel filtration column (Amersham Pharmacia Biotech, Uppsala, Sweden) using phosphate buffered saline (50/150, 10 mM NaN3, pH 7.4) as eluent. The fast moving coloured fractions were collected. […] The labelling degrees of these protein conjugates (compound 4 and 6) were determined spectrophotometrically. Labelling degrees of 2.1 (compound 4) and 2.3 (compound 6) fluorophores per protein were obtained.

mouse IgG anti-AFP [3] = test: Labelling of mouse IgG anti-AFP with rhodamine 6G labels; absorption spectrum of the conjugate; conditions: for normal absorption band of labelled mouse IgG anti-AFP: absorption spectrum of IgG conjugate in phosphate buffered saline pH 7.4; for additional absorption band of labelled mouse IgG anti-AFP (non-fluorescent aggregates, hydrophobic interactions): absorption spectrum of IgG conjugate, equi-intense band, absent in excitation spectrum
Procedure: To the solution of 0.28 mg (1.75 nmol) of mouse IgG anti-AFP in 200 μl phosphate buffered saline (10/150 mM, pH 7.4) a 10 fold excess (17.5 nmol) of 5-carboxyrhodamine 6G succinimidyl ester (compound 15, Molecular Probes, Eugene, Oreg.) in anhydrous N,N-dimethylformamide or a 20 fold excess of Glu-Tau-succinimide derivative of 5-carboxyrhodamine 6G in acetonitrile water (reaction mixture of example 14, compound 17) was added. 40 μl of NaHCO3 (1 M, aq) was added and the mixtures were incubated at room temperature for 2 h. The products were purified with NAP-5 gel filtration column (Amersham Pharmacia Biotech, Uppsala, Sweden) using phosphate buffered saline (50/150, 10 mM NaN3, pH 7.4) as eluent. The fast moving coloured fractions were collected.
This additional absorption originates from hydrophobic interactions between the fluorophores and protein or between the two fluorophores. […] These non-fluorescent aggregates are typical for hydrophobic xanthene-type dyes (rhodamines and fluoresceins).

Row | Compound | fluorescence yield of labelled oligonucleotide compared with oligonucleotide labelled with compound 2 [1] | normal absorption band of labelled mouse IgG anti-AFP (mouse IgG anti-AFP [3]) [nm] | additional absorption band of labelled mouse IgG anti-AFP (non-fluorescent aggregates, hydrophobic interactions) (mouse IgG anti-AFP [3]) | precipitation of the labelled proteins on labelling (mouse IgG anti-AFP [2])
1 | Glu-Tau-succinimide derivative of 4,4-difluoro-5-(2-thienyl)-1,3-dimethyl-4-bora-3a,4a-diaza-s-indacene-2-propionic acid [compound 4] | one order of magnitude higher | – | – | proceeded without any problems
2 | 4,4-difluoro-5-(2-thienyl)-1,3-dimethyl-4-bora-3a,4a-diaza-s-indacene-2-propionic acid succinimidyl ester [compound 2, reference compound] | – | – | – | almost complete precipitation of the labelled proteins
3 | 4,4-difluoro-(2-pyrrolyl)-1,3-dimethyl-4-bora-3a,4a-diaza-s-indacene-2-propionic acid succinimidyl ester [compound 5, reference compound] | – | – | – | almost complete precipitation of the labelled proteins
4 | Glu-Tau-succinimide derivative of 4,4-difluoro-5-(2-pyrrolyl)-1,3-dimethyl-4-bora-3a,4a-diaza-s-indacene-2-propionic acid [compound 6] | – | – | – | proceeded without any problems

Continued, in another order:

Row | fluorescence yield of labelled oligonucleotide compared with oligonucleotide labelled with compound 2 [1] | normal absorption band of labelled mouse IgG anti-AFP (mouse IgG anti-AFP [3]) [nm] | additional absorption band of labelled mouse IgG anti-AFP (non-fluorescent aggregates, hydrophobic interactions) (mouse IgG anti-AFP [3]) | Compound | precipitation of the labelled proteins on labelling (mouse IgG anti-AFP [2])
5 | – | 530 | absence of additional absorption band | Glu-Tau-succinimide derivative of 5-carboxyrhodamine 6G [compound 17] | –
6 | – | 530 | 504 nm | CCN=c1cc2oc3cc(NCC)c(C)cc3c(-c3ccc(C(=O)ON4C(=O)CCC4=O)cc3C(=O)O)c-2cc1C [compound 15, 5-carboxyrhodamine 6G succinimidyl ester, reference compound] | –
